Measured values published in publication PMC5453931, “Cathelicidin-trypsin inhibitor loop conjugate represents a promising antibiotic candidate with protease stability” (Scientific Reports, 2017).
Converted amounts (≈) assume the structure as drawn. Where a SMILES comes first, the peptide text is derived from it.

What was measured:
trypsin or proteinase K = settings: peptide:protease 300/1 mol/mol, 30 min, 37 °C, then 1 × MIC 2 h with E. coli, S. aureus, C. albicans; colony counting; Fig. 3E
trypsin = test: Protease stability, RP-HPLC analysis of degradation; assay type: in vitro ADME; settings: trypsin, 300:1, 0.1 M NH4HCO3 pH 8.2, 37 °C, 6 h; RP-HPLC; Fig. 4
Procedure: To further examine the stability of TIH3F incubated with enzymes (trypsin and protease K) over time, the LC analysis of peptide degradation over a series of time spans (0, 6, 12, 24 h) was performed. TIH3F and protease solution were prepared in 0.1 M NH4HCO3 buffer (pH 8.2) to final molar ratio of 300:1, and incubated at 37 °C for 6, 12, and 24 h, respectively. Then 150 μL aliquots were taken at given time intervals, diluted with 150 μL of water/acetonitrile (60/40 v/v) containing 2% TFA, and analyzed by RP-HPLC (Thermo Scientific Syncronis C18 column, 250 mm × 4.6 mm, 5 μm), eluted with acetonitrile/water (containing 0.1% TFA) mixture of linear gradient concentration.

E. coli = assay type: cell-based; settings: 18 h
Summary of the method: (§1)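 Growth at A595 after 18 h at 37 °C defines the MIC, taken as the minimal peptide concentration giving no microbial growth. Organisms were grown to exponential phase in Mueller-Hinton broth and diluted to 10^6 CFU/mL prior to combining with an equal volume of peptide dilutions.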

S. dysenteria = assay type: cell-based; settings: two-fold broth microdilution, MH broth, 37 °C, 18 h, A595; mean of three independent experiments in duplicate
Summary of the method: as §1

E. coli 08040726 = assay type: cell-based; settings: 08040726, 18 h
Summary of the method: as §1

P. mirabilis = assay type: cell-based; settings: 18 h
Summary of the method: as §1

B. subtilis = assay type: cell-based; settings: 18 h
Summary of the method: as §1

S. aureus = assay type: cell-based; settings: 18 h
Summary of the method: as §1

P. aeruginosa = assay type: cell-based; settings: 18 h
Summary of the method: as §1

C. albican = assay type: cell-based; settings: 18 h
Summary of the method: as §1

[1] = system: Shigella dysenteriae 0804203; test: microbe, parasite or virus in culture; assay type: cell-based; settings: Gram-negative; two-fold broth microdilution, MH broth, 37 °C, 18 h; mean of three independent experiments in duplicates
Summary of the method: as §1

Aeromonas veronii = test: microbe, parasite or virus in culture; assay type: cell-based; settings: 18 h
Summary of the method: as §1

Proteus mirabilis 1376 = test: microbe, parasite or virus in culture; assay type: cell-based; settings: 1376, 18 h
Summary of the method: as §1

S. Maltophilia 090223 = test: microbe, parasite or virus in culture; assay type: cell-based; settings: 090223, 18 h
Summary of the method: as §1

[2] = system: Enterococcus faecium 08052315; test: microbe, parasite or virus in culture; assay type: cell-based; settings: 08052315, 18 h
Summary of the method: as §1

[3] = system: Bacillus subtilis 08042313; test: microbe, parasite or virus in culture; assay type: cell-based; settings: 08042313, 18 h
Summary of the method: as §1

K. Pneumoniae 08031012 = test: microbe, parasite or virus in culture; assay type: cell-based; settings: 08031012, 18 h
Summary of the method: as §1

Vibrio harveyi = test: microbe, parasite or virus in culture; assay type: cell-based; settings: 18 h
Summary of the method: as §1

S. Aureus 08032810 = test: microbe, parasite or virus in culture; assay type: cell-based; settings: 08032810, 18 h
Summary of the method: as §1

S. Aureus 08032615 = test: microbe, parasite or virus in culture; assay type: cell-based; settings: 08032615, 18 h
Summary of the method: as §1

[4] = system: Candida albicans 08030102; test: microbe, parasite or virus in culture; assay type: cell-based; settings: 08030102, 18 h
Summary of the method: as §1

S. Aureus 08032706 = test: microbe, parasite or virus in culture; assay type: cell-based; settings: 08032706, 18 h
Summary of the method: as §1

P. Aeruginosa 08021015 = test: microbe, parasite or virus in culture; assay type: cell-based; settings: 08021015, 18 h
Summary of the method: as §1

K. Pneumoniae 08040202 = test: microbe, parasite or virus in culture; assay type: cell-based; settings: 08040202, 18 h
Summary of the method: as §1

[5] = system: Escherichia coli ATCC25922; test: microbe, parasite or virus in culture; assay type: cell-based; settings: ATCC25922, 18 h
Summary of the method: as §1

[6] = system: Nocardia asteroides 08052412; test: microbe, parasite or virus in culture; assay type: cell-based; settings: 18 h
Summary of the method: as §1

E. Coli 08032823 = test: microbe, parasite or virus in culture; assay type: cell-based; settings: 08032823, 18 h
Summary of the method: as §1

[7] = 20% fresh human serum, 37 °C, colonies surviving 1 × MIC, Fig. 3B
[8] = system: C. albicans biofilm formation; test: Biofilm inhibition assay (XTT); assay type: cell-based; settings: Candida albicans, 4 μg/mL, 36 h, 35 °C, Fig. 2A
Procedure: TIH3F that has the best antifungal activity among the four peptides was chosen to examine the effect on the C. albicans biofilm formation and the established biofilm using previously described method with minor modifications. In the biofilm inhibition assay, after the incubation at 35 °C, C. Albicans was diluted to 1 × 10^6 CFU/mL in RPMI-1640 medium. Then 2 mL culture was added to each well of 6-well plates with coverslips at the bottom, and incubated at 35 °C in a humid chamber for 3 h. Non-adherent cells were then washed away by PBS, and series concentrations of TIH3F (0, 1, 2, 4 μg/mL) were added into the plate, with amphotericin B as control. The formation of the biofilm was determined by the XTT Cell Proliferation and Cytotoxicity Kit (KeyGEN BioTECH, Nanjing, China) after 36-h incubation. In the biofilm disruption assay, the biofilm was preformed as described above but with a longer incubation time up to 72 h. Then TIH3F and amphotericin B of series concentrations (0, 2.5, 5, 10, 25, 50 μg/mL) was added after non-adherent cells were washed out. The measurement of remaining biofilm was then determined. […] After washing with PBS, the plate was immediately photographed with fluorescence microscope.

[9] = system: established C. albicans biofilm; test: Biofilm disruption assay, established biofilm (XTT, PI/SYBR Green I); assay type: cell-based; settings: 5 μg/mL, biofilm preformed 72 h, XTT metabolic activity; Fig. 2B
Procedure: TIH3F that has the best antifungal activity among the four peptides was chosen to examine the effect on the C. albicans biofilm formation and the established biofilm using previously described method with minor modifications. In the biofilm inhibition assay, after the incubation at 35 °C, C. Albicans was diluted to 1 × 10^6 CFU/mL in RPMI-1640 medium. Then 2 mL culture was added to each well of 6-well plates with coverslips at the bottom, and incubated at 35 °C in a humid chamber for 3 h. Non-adherent cells were then washed away by PBS, and series concentrations of TIH3F (0, 1, 2, 4 μg/mL) were added into the plate, with amphotericin B as control. The formation of the biofilm was determined by the XTT Cell Proliferation and Cytotoxicity Kit (KeyGEN BioTECH, Nanjing, China) after 36-h incubation. In the biofilm disruption assay, the biofilm was preformed as described above but with a longer incubation time up to 72 h. Then TIH3F and amphotericin B of series concentrations (0, 2.5, 5, 10, 25, 50 μg/mL) was added after non-adherent cells were washed out. The measurement of remaining biofilm was then determined. In order to further confirm the antifungal effect of TIH3F against C. albicans encased in biofilms, the established biofilm was treated with TIH3F (0, 5, 50 μg/mL), washed three times with PBS, and finally stained with 1 mL 1000-fold diluted PI/SYBR Green I at 30 °C in the dark for 20 min. After washing with PBS, the plate was immediately photographed with fluorescence microscope.

## CC(C)C[C@H](NC(=O)[C@H](CCCNC(=N)N)NC(=O)[C@H](CCCCN)NC(=O)[C@H](Cc1ccccc1)NC(=O)[C@H](Cc1ccccc1)NC(=O)[C@@H](N)CCCCN)C(=O)N[C@@H](CC(C)C)C(=O)N[C@@H](CCCCN)C(=O)N[C@@H](CO)C(=O)N[C@H](C(=O)N[C@@H](CCCNC(=N)N)C(=O)N[C@@H](CCCNC(=N)N)C(=O)N[C@@H](C)C(=O)N[C@H](C(=O)N[C@@H](CCCCN)C(=O)N[C@@H](CCCCN)C(=O)N[C@@H](Cc1ccccc1)C(N)=O)C(C)C)C(C)C [Hc3] (H-KFFKRLLKSVRRAVKKF-NH2)
Trypsin or proteinase K
  antimicrobial activity after treatment with trypsin or proteinase K: almost lost its bactericidal ability
trypsin
  degradation by trypsin: the majority of which was rapidly digested
E. coli
  MIC E. coli: 18.75 µg/mL (≈ 8.72 µM)
S. dysenteria
  MIC S. dysenteria: 2.34 µg/mL (≈ 1.09 µM)
E. coli 08040726
  MIC E. coli 08040726: 37.5 µg/mL (≈ 17.4 µM)
P. mirabilis
  MIC P. mirabilis: 4.68 µg/mL (≈ 2.18 µM)
B. subtilis
  MIC B. subtilis: 9.38 µg/mL (≈ 4.36 µM)
S. aureus
  MIC S. aureus: 9.38 µg/mL (≈ 4.36 µM)
P. aeruginosa
  MIC P. aeruginosa: 9.38 µg/mL (≈ 4.36 µM)
C. albican
  MIC C. albican: 9.38 µg/mL (≈ 4.36 µM)
[1]
  MIC Shigella dysenteriae 0804203: 2.34 µg/mL (≈ 1.09 µM)
Aeromonas veronii
  MIC Aeromonas veronii: 9.38 µg/mL (≈ 4.36 µM)
Proteus mirabilis 1376
  MIC Proteus mirabilis 1376: 4.68 µg/mL (≈ 2.18 µM)
S. Maltophilia 090223
  MIC S. Maltophilia 090223: 9.38 µg/mL (≈ 4.36 µM)
[2]
  MIC Enterococcus faecium 08052315: 9.38 µg/mL (≈ 4.36 µM)
[3]
  MIC Bacillus subtilis 08042313: 9.38 µg/mL (≈ 4.36 µM)
K. Pneumoniae 08031012
  MIC K. Pneumoniae 08031012: 75 µg/mL (≈ 34.9 µM)
Vibrio harveyi
  MIC Vibrio harveyi: 18.75 µg/mL (≈ 8.72 µM)
S. Aureus 08032810
  MIC S. Aureus 08032810: 75 µg/mL (≈ 34.9 µM)
S. Aureus 08032615
  MIC S. Aureus 08032615: 9.38 µg/mL (≈ 4.36 µM)
[4]
  MIC Candida albicans 08030102: 9.38 µg/mL (≈ 4.36 µM)
S. Aureus 08032706
  MIC S. Aureus 08032706: 75 µg/mL (≈ 34.9 µM)
P. Aeruginosa 08021015
  MIC P. Aeruginosa 08021015: 9.38 µg/mL (≈ 4.36 µM)
K. Pneumoniae 08040202
  MIC K. Pneumoniae 08040202: 75 µg/mL (≈ 34.9 µM)
[5]
  MIC Escherichia coli ATCC25922: 18.75 µg/mL (≈ 8.72 µM)
[6]
  MIC Nocardia asteroides 08052412: 4.69 µg/mL (≈ 2.18 µM)
E. Coli 08032823
  MIC E. Coli 08032823: 9.38 µg/mL (≈ 4.36 µM)
[7]; 3 h
  bactericidal ability after incubation with human serum: dropped more than half
[7]; 6 h
  kill (%) after incubation with human serum: almost diminished
[7]; 36 h
  kill (%) / antimicrobial activity kept after incubation with human serum: lost its bacterial inhibitory activity

## C[C@@H]1[C@H](O)[C@@H](C)/C=C/C=C/C=C/C=C/C=C/C=C/C=C/[C@H](O[C@@H]2O[C@H](C)[C@@H](O)[C@H](N)[C@@H]2O)C[C@@H]2O[C@](O)(C[C@@H](O)C[C@@H](O)[C@H](O)CC[C@@H](O)C[C@@H](O)CC(=O)O[C@H]1C)C[C@H](O)[C@H]2C(=O)O [amphotericin B, reference compound]
[8]
  inhibition at 4 µg/mL: 25%
[9]
  damage of established C. albicans biofilm: remained intact
